# Reference: patent publication US20260184675A1, “CHIRAL ISOMERIC SULFITE COMPOUND AND APPLICATION THEREOF” (Chengdu Hanova BioSciences Co., Ltd, priority 2024, published 2026)
# Legend:
# [1] = tested on: eggs of Harmonia axyridis; assay: Effect on hatching of eggs of Harmonia axyridis, egg card immersion; format: in vivo; settings: 100 ppm; for Number of hatched larvae 4 days after insecticide delivery, Replicate 1 / Number of hatched larvae 4 days after insecticide delivery, Replicate 2 / Number of hatched larvae 4 days after insecticide delivery, Replicate 3: Harmonia axyridis egg cards, immersed 30 seconds; for Hatching rate (%), Replicate 1 / Hatching rate (%), Replicate 2 / Hatching rate (%), Replicate 3: Harmonia axyridis eggs, 4 days after delivery
# Method in brief: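 Egg cards (~20 eggs each) dipped 30 s in 100 ppm insecticide, air dried and kept moist at 27° C; 5 cards per treatment, 3 replicates. Hatching assessed 4 days after treatment against pre-treatment egg counts, and control effect calculated by formula.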
# [2] = tested on: eggs of Spodoptera litura; assay: Effect on hatching of eggs of Spodoptera litura, egg piece soaking; format: in vivo; settings: 500 ppm; for Hatching rate (%), Replicate 1 / Hatching rate (%), Replicate 2 / Hatching rate (%), Replicate 3 / Number of unhatched larvae 4 days after insecticide delivery, Replicate 1 / Number of unhatched larvae 4 days after insecticide delivery, Replicate 2 / Number of unhatched larvae 4 days after insecticide delivery, Replicate 3: Spodoptera litura eggs; for Hatching rate (%), Replicate 1 / Hatching rate (%), Replicate 2 / Hatching rate (%), Replicate 3: 4 days after delivery; for Number of unhatched larvae 4 days after insecticide delivery, Replicate 1 / Number of unhatched larvae 4 days after insecticide delivery, Replicate 2 / Number of unhatched larvae 4 days after insecticide delivery, Replicate 3: soaked 10 minutes
# Method in brief: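 Egg pieces of about 60 eggs were soaked 10 min in test agent at 500 ppm, blotted, then held singly at 24±1 °C, 80±10% RH, 12:12 L:D. Hatched and unhatched eggs were counted on day 4 to give hatching rate and control effect; 3 replicates.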
# eggs of Panonychus citri = assay: Effect on hatching of eggs of Panonychus citri, leaf disc method; format: in vivo; settings: 1 ppm; for Hatching rate (%), Replicate 1 / Hatching rate (%), Replicate 2 / Hatching rate (%), Replicate 3 / Number of hatched larvae 5 days after insecticide delivery, Replicate 1 / Number of hatched larvae 5 days after insecticide delivery, Replicate 2 / Number of hatched larvae 5 days after insecticide delivery, Replicate 3: Panonychus citri eggs; for Hatching rate (%), Replicate 1 / Hatching rate (%), Replicate 2 / Hatching rate (%), Replicate 3: 5 days after delivery; for Number of hatched larvae 5 days after insecticide delivery, Replicate 1 / Number of hatched larvae 5 days after insecticide delivery, Replicate 2 / Number of hatched larvae 5 days after insecticide delivery, Replicate 3: leaf disc
# eggs of Aleyrodidae = assay: Effect on hatching of eggs of Aleyrodidae, leaf disc method; format: in vivo; settings: 10 ppm; for Hatching rate (%), Replicate 1 / Hatching rate (%), Replicate 2 / Hatching rate (%), Replicate 3 / Number of hatched larvae 5 days after insecticide delivery, Replicate 1 / Number of hatched larvae 5 days after insecticide delivery, Replicate 2 / Number of hatched larvae 5 days after insecticide delivery, Replicate 3: Aleyrodidae eggs; for Hatching rate (%), Replicate 1 / Hatching rate (%), Replicate 2 / Hatching rate (%), Replicate 3: 5 days after delivery; for Number of hatched larvae 5 days after insecticide delivery, Replicate 1 / Number of hatched larvae 5 days after insecticide delivery, Replicate 2 / Number of hatched larvae 5 days after insecticide delivery, Replicate 3: leaf disc
# Method in brief: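 Leaf discs carrying Aleyrodidae eggs were first examined microscopically to record a baseline egg count. They were then dipped for 10 seconds in compound solution at 10 ppm or in clear water, taken out, and incubated with humidity maintained. Five days after delivery, the number of hatched larvae was recorded to assess hatching inhibition.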
# Magnaporthe grisea = format: cell-based; settings: 100 ppm; for Average antifungal rate (%) / Antifungal rate of Magnaporthe grisea (%), Replicate 1 / Antifungal rate of Magnaporthe grisea (%), Replicate 2 / Antifungal rate of Magnaporthe grisea (%), Replicate 3: 96-well plate; for Average antifungal rate (%): average of 3 replicates
compound,measurement,setting,value
"C[C@@H](COS(=O)OCCF)Oc1ccc(Cl)cc1Cl (stereo partly drawn) [1-(S,S)]",inhibitory activity on the hatching of eggs of Harmonia axyridis (in words),[1],strong inhibitory activities
same,"Number of hatched larvae 4 days after insecticide delivery, Replicate 1","[1]; listed as 1-(S, S)",0
same,"Number of hatched larvae 4 days after insecticide delivery, Replicate 2","[1]; listed as 1-(S, S)",0
same,"Number of hatched larvae 4 days after insecticide delivery, Replicate 3","[1]; listed as 1-(S, S)",0
same,"Hatching rate (%), Replicate 1","[1]; listed as 1-(S, S)",0.00%
same,"Hatching rate (%), Replicate 2","[1]; listed as 1-(S, S)",0.00%
same,"Hatching rate (%), Replicate 3","[1]; listed as 1-(S, S)",0.00%
same,inhibitory activity on the hatching of eggs of Spodoptera litura (in words),[2],good inhibitory activities
same,"Hatching rate (%), Replicate 1","[2]; listed as 1-(S, S)",23.73%
same,"Hatching rate (%), Replicate 2","[2]; listed as 1-(S, S)",26.15%
same,"Hatching rate (%), Replicate 3","[2]; listed as 1-(S, S)",20.69%
same,"Number of unhatched larvae 4 days after insecticide delivery, Replicate 1","[2]; listed as 1-(S, S)",45
same,"Number of unhatched larvae 4 days after insecticide delivery, Replicate 2","[2]; listed as 1-(S, S)",48
same,"Number of unhatched larvae 4 days after insecticide delivery, Replicate 3","[2]; listed as 1-(S, S)",46
same,inhibitory effect on the hatching of eggs of Panonychus citri (in words),eggs of Panonychus citri,good inhibitory effects
same,"Hatching rate (%), Replicate 1","eggs of Panonychus citri; listed as 1-(S, S)",0.00%
same,"Hatching rate (%), Replicate 2","eggs of Panonychus citri; listed as 1-(S, S)",0.00%
same,"Hatching rate (%), Replicate 3","eggs of Panonychus citri; listed as 1-(S, S)",0.00%
same,"Number of hatched larvae 5 days after insecticide delivery, Replicate 1","eggs of Panonychus citri; listed as 1-(S, S)",0
same,"Number of hatched larvae 5 days after insecticide delivery, Replicate 2","eggs of Panonychus citri; listed as 1-(S, S)",0
same,"Number of hatched larvae 5 days after insecticide delivery, Replicate 3","eggs of Panonychus citri; listed as 1-(S, S)",0
same,inhibitory activity on the hatching of eggs of Aleyrodidae (in words),eggs of Aleyrodidae,strong inhibitory activities
same,"Hatching rate (%), Replicate 1","eggs of Aleyrodidae; listed as 1-(S, S)",0.00%
same,"Hatching rate (%), Replicate 2","eggs of Aleyrodidae; listed as 1-(S, S)",0.00%
same,"Hatching rate (%), Replicate 3","eggs of Aleyrodidae; listed as 1-(S, S)",0.00%
same,"Number of hatched larvae 5 days after insecticide delivery, Replicate 1","eggs of Aleyrodidae; listed as 1-(S, S)",0
same,"Number of hatched larvae 5 days after insecticide delivery, Replicate 2","eggs of Aleyrodidae; listed as 1-(S, S)",0
same,"Number of hatched larvae 5 days after insecticide delivery, Replicate 3","eggs of Aleyrodidae; listed as 1-(S, S)",0
same,inhibitory rate against Magnaporthe grisea (in words),Magnaporthe grisea,strong inhibitory rate
same,Average antifungal rate (%),Magnaporthe grisea,97.35%
same,"Antifungal rate of Magnaporthe grisea (%), Replicate 1",Magnaporthe grisea,99.38%
same,"Antifungal rate of Magnaporthe grisea (%), Replicate 2",Magnaporthe grisea,95.02%
same,"Antifungal rate of Magnaporthe grisea (%), Replicate 3",Magnaporthe grisea,97.64%
"CC(COc1ccc(Cl)cc1Cl)OS(=O)OCCF [1′-(R,R)]","Number of hatched larvae 4 days after insecticide delivery, Replicate 1","[1]; listed as 1′-(R, R)",15
same,"Number of hatched larvae 4 days after insecticide delivery, Replicate 2","[1]; listed as 1′-(R, R)",16
same,"Number of hatched larvae 4 days after insecticide delivery, Replicate 3","[1]; listed as 1′-(R, R)",18
same,"Hatching rate (%), Replicate 1","[1]; listed as 1′-(R, R)",17.05%
same,"Hatching rate (%), Replicate 2","[1]; listed as 1′-(R, R)",16.84%
same,"Hatching rate (%), Replicate 3","[1]; listed as 1′-(R, R)",16.22%
same,"Hatching rate (%), Replicate 1","[2]; listed as 1′-(R, R)",61.82%
same,"Hatching rate (%), Replicate 2","[2]; listed as 1′-(R, R)",64.29%
same,"Hatching rate (%), Replicate 3","[2]; listed as 1′-(R, R)",62.71%
same,"Number of unhatched larvae 4 days after insecticide delivery, Replicate 1","[2]; listed as 1′-(R, R)",21
same,"Number of unhatched larvae 4 days after insecticide delivery, Replicate 2","[2]; listed as 1′-(R, R)",20
same,"Number of unhatched larvae 4 days after insecticide delivery, Replicate 3","[2]; listed as 1′-(R, R)",22
same,"Hatching rate (%), Replicate 1","eggs of Panonychus citri; listed as 1′-(R, R)",8.33%
same,"Hatching rate (%), Replicate 2","eggs of Panonychus citri; listed as 1′-(R, R)",7.07%
same,"Hatching rate (%), Replicate 3","eggs of Panonychus citri; listed as 1′-(R, R)",5.51%
same,"Number of hatched larvae 5 days after insecticide delivery, Replicate 1","eggs of Panonychus citri; listed as 1′-(R, R)",6
same,"Number of hatched larvae 5 days after insecticide delivery, Replicate 2","eggs of Panonychus citri; listed as 1′-(R, R)",7
same,"Number of hatched larvae 5 days after insecticide delivery, Replicate 3","eggs of Panonychus citri; listed as 1′-(R, R)",7
same,"Hatching rate (%), Replicate 1","eggs of Aleyrodidae; listed as 1′-(R, R)",13.95%
same,"Hatching rate (%), Replicate 2","eggs of Aleyrodidae; listed as 1′-(R, R)",15.38%
same,"Hatching rate (%), Replicate 3","eggs of Aleyrodidae; listed as 1′-(R, R)",13.21%
same,"Number of hatched larvae 5 days after insecticide delivery, Replicate 1","eggs of Aleyrodidae; listed as 1′-(R, R)",18
same,"Number of hatched larvae 5 days after insecticide delivery, Replicate 2","eggs of Aleyrodidae; listed as 1′-(R, R)",14
same,"Number of hatched larvae 5 days after insecticide delivery, Replicate 3","eggs of Aleyrodidae; listed as 1′-(R, R)",14
same,inhibitory rate against Magnaporthe grisea (in words),Magnaporthe grisea,strong inhibitory rate
same,Average antifungal rate (%),Magnaporthe grisea,84.86%
same,"Antifungal rate of Magnaporthe grisea (%), Replicate 1",Magnaporthe grisea,84.82%
same,"Antifungal rate of Magnaporthe grisea (%), Replicate 2",Magnaporthe grisea,83.06%
same,"Antifungal rate of Magnaporthe grisea (%), Replicate 3",Magnaporthe grisea,86.71%
